Experimental data as given in patent US10759766B2, “Certain chemical entities, compositions, and methods” (NeuPharma, Inc., priority 2011, dated 2020).

Tests used:
[1] = biological target: BRAF (Homo sapiens (Human), UniProt P15056); test: Z′-LYTE kinase inhibition assay (Invitrogen), BRAF; format: biochemical; settings: 1 μM compound, Z′-LYTE method; for inhibition at 1 µM: read-out: % inhibition at 1 μM against BRAF
Method: Inhibitory activities Inhibitory activities of compounds against BRAF, and BRAF V600E were measured by Invitrogen using Z′-LYTE® Method as briefly described in the following. 4× Test compounds are dissolved in 1% DMSO. […] ATP solutions are diluted to a 4×ATP working concentration in Kinase Buffer (50 mM HEPES pH 7.5, 0.01% BRIJ-35, 10 mM MgCl2, 1 mM EGTA). Reaction started by 30-second shaking of mixture consisting of 2.5 μL 4× test compound, […] and 2.5 μL 4×ATP Solution on Bar-coded Corning, low volume NBS, black 384-well plate (Corning Cat. #3676). Then the mixture was incubated for 60-minute at room temperature for the kinase reaction, followed by addition of 5 μL of a 1:1024 dilution of development reagent A and 30-second plate shake. The mixture was then incubated for another 60-minute at room temperature for development reaction. Fluorescence was read by plate reader. IC50 was calculated by plotting the concentration of compound vs the percentage of inhibition in treated wells using GraphPad Prism 5.

[2] = biological target: BRAF V600E (Homo sapiens (Human), UniProt P15056, V600E); test: Z′-LYTE kinase inhibition assay (Invitrogen), BRAF V600E; format: biochemical; settings: Z′-LYTE method; for inhibition at 1 µM: read-out: % inhibition at 1 μM against BRAF V600E; for IC50: read-out: IC50 against BRAF V600E
In short: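 FRET-based Z′-LYTE peptide phosphorylation format in 50 mM HEPES pH 7.5, 0.01% BRIJ-35, 10 mM MgCl2, 1 mM EGTA with ATP. Kinase reaction 60 min at room temperature, then protease development step 60 min at room temperature before fluorescence read. IC50 from compound concentration versus percent inhibition.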

[3] = biological target: KDR (VEGFR2) (Homo sapiens (Human), UniProt P35968); test: Z′-LYTE kinase inhibition assay (Invitrogen), KDR; format: biochemical; settings: Z′-LYTE method; for inhibition at 1 µM: read-out: % inhibition at 1 μM against KDR; for IC50: read-out: IC50 against KDR
In short: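 Z′-LYTE FRET assay: 10 μL reactions with 0.5–11.7 ng KDR and 2 μM Tyr 01 peptide in 50 mM HEPES pH 7.5, 10 mM MgCl2, 1 mM EGTA, 0.01% BRIJ-35, 1 h at room temperature. Development Reagent B (1:256) added for 60 min, fluorescence read; IC50 from concentration–inhibition curves.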

[4] = test system: A375 cells; test: Inhibition of cancer cell growth, MTT assay, A375; format: cell-based
In short: (§1)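 Cells grown in RPMI 1640 with 10% FBS were seeded at about 4000 cells/well, left 24 h, then exposed to compound for 72 h (1% DMSO final). MTT absorbance at 570 nm was compared with viable cells at time of addition to give growth inhibition; IC50 from concentration–inhibition plots, triplicates.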

[5] = test system: A549 cells; test: Inhibition of cancer cell growth, MTT assay, A549; format: cell-based
In short: as §1

[6] = Homo sapiens, A-375, 72 h exposure
[7] = Homo sapiens, A549, 72 h exposure

Sequence of BRAF (P15056 whole entry): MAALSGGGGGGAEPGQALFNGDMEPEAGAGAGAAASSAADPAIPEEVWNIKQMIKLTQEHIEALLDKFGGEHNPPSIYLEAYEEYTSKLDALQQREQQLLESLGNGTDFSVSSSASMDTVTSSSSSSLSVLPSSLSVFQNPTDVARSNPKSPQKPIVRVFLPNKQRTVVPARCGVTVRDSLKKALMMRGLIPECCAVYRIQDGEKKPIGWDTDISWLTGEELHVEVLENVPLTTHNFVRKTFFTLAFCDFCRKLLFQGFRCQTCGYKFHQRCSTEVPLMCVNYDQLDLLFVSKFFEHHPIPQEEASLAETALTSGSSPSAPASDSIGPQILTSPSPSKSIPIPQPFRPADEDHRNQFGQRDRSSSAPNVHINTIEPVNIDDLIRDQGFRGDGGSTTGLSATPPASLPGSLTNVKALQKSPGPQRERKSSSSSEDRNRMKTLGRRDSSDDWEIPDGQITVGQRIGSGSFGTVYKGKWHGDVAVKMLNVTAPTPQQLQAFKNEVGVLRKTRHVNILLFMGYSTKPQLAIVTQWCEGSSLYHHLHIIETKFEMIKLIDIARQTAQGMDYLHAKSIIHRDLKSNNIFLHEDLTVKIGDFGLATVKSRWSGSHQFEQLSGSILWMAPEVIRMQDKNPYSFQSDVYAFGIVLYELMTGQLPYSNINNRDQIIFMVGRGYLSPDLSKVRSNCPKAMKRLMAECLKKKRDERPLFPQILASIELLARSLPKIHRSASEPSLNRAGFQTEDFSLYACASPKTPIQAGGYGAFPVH
Sequence of BRAF V600E (P15056 whole entry V600E): as the sequence (P15056 whole entry) above, with V600E counted along it
Sequence of KDR (VEGFR2) (P35968 20-1356): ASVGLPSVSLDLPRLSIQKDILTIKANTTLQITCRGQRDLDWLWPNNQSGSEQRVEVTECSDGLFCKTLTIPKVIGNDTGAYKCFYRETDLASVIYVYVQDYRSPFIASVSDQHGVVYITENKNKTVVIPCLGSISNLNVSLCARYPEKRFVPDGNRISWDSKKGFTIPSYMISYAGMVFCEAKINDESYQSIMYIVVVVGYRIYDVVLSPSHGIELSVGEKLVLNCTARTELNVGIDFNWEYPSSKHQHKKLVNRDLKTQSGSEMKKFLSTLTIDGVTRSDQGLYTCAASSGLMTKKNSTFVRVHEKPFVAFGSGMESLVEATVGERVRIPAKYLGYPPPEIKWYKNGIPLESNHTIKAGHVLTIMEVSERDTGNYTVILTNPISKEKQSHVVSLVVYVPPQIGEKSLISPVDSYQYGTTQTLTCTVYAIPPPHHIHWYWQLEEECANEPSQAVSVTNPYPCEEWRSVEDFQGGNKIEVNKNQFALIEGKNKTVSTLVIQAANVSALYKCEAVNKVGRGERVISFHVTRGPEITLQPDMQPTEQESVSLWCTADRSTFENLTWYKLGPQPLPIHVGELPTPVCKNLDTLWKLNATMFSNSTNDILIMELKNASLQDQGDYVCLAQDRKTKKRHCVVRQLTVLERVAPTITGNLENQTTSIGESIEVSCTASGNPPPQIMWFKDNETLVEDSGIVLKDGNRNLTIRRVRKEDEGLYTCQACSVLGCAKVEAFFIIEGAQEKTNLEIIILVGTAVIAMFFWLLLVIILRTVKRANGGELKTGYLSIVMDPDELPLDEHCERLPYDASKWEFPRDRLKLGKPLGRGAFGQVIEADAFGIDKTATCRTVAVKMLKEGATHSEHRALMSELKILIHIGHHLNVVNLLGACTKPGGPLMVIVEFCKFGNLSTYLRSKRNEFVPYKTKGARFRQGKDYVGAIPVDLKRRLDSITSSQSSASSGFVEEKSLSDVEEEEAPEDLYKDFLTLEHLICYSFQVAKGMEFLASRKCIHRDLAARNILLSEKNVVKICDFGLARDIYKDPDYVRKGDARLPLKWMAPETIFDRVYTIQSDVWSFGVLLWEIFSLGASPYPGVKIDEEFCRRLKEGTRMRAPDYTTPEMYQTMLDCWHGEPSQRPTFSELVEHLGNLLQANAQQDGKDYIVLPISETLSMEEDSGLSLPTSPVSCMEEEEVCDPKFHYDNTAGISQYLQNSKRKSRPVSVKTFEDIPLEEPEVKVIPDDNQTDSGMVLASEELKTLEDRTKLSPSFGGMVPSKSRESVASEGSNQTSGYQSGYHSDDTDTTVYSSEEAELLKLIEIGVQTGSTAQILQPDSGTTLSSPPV

O=C(Nc1ccc(F)c(C(=O)c2ccc3ncc(N4CCOCC4)nc3c2)c1)c1ccc(Cl)c(C(F)(F)F)c1 [Compound C134, 4-chloro-N-(4-fluoro-3-(3-morpholinoquinoxaline-6-carbonyl)phenyl)-3-(trifluoromethyl)benzamide]
inhibition at 1 µM [1]: < 70%
inhibition at 1 µM ([2]; 1 μM compound): 70 to 89%
IC50 [2]: > 100 nM
inhibition at 1 µM ([3]; 1 μM compound): > 89%
IC50 [3]: < 100 nM
IC50 [4, 6]: < 1000 nM
IC50 [5, 7]: 2000 to 5000 nM

O=C(Nc1ccc(F)c(F)c1)Nc1ccc(F)c(C(=O)c2ccc3ncc(N4CCOCC4)nc3c2)c1 [Compound C046, 1-(3,4-difluorophenyl)-3-(4-fluoro-3-(3-morphlinoquinoxaline-6-carbonyl)phenyl)urea]
inhibition at 1 µM [1]: 70 to 89%
inhibition at 1 µM ([2]; 1 μM compound): > 89%
inhibition at 1 µM ([3]; 1 μM compound): > 89%
IC50 [4, 6]: < 1000 nM
IC50 [5, 7]: < 2000 nM

O=C(Nc1cc(F)c(F)c(C(=O)c2ccc3nccnc3c2)c1F)c1cccc(F)c1 [Compound C108, 3-fluoro-N-(2,4,5-trifluoro-3-(quinoxaline-6-carbonyl)phenyl)benzamide]
inhibition at 1 µM [1]: < 70%
inhibition at 1 µM ([2]; 1 μM compound): 70 to 89%
inhibition at 1 µM ([3]; 1 μM compound): < 70%
IC50 [4, 6]: > 5000 nM
IC50 [5, 7]: 2000 to 5000 nM

O=C(Nc1cc(F)c(F)c(C(=O)c2ccc3nccnc3c2)c1)Nc1ccc(Cl)c(C(F)(F)F)c1 [Compound C023, 1-(4-chloro-3-(trifluoromethyl)phenyl)-3-(3,4-difluoro-5-(quinoxaline-6-carbonyl)phenyl)urea]
inhibition at 1 µM [1]: < 70%
inhibition at 1 µM ([2]; 1 μM compound): 70 to 89%
inhibition at 1 µM ([3]; 1 μM compound): 70 to 89%
IC50 [4, 6]: < 1000 nM
IC50 [5, 7]: < 2000 nM

O=C(Nc1cccc(F)c1)Nc1cc(F)c(F)c(C(=O)c2ccc3ncc(N4CCOCC4)nc3c2)c1 [Compound C039, 1-(3,4-difluoro-5-(3-morpholinoquinoxaline-6-carbonyl)phenyl)-3-(3-fluorophenyl)urea]
inhibition at 1 µM [1]: 70 to 89%
inhibition at 1 µM ([2]; 1 μM compound): > 89%
inhibition at 1 µM ([3]; 1 μM compound): 70 to 89%
IC50 [4, 6]: 1000 to 5000 nM
IC50 [5, 7]: 2000 to 5000 nM

O=C(Nc1cccc(C(=O)c2ccc3ncc(-c4cn[nH]c4)nc3c2)c1)c1ccc(Cl)c(C(F)(F)F)c1 [Compound C133, N-(3-(3-(1H-pyrazol-4-yl)quinoxaline-6-carbonyl)phenyl)-4-chloro-3-(trifluoromethyl)benzamide]
inhibition at 1 µM [1]: < 70%
inhibition at 1 µM ([2]; 1 μM compound): 70 to 89%
inhibition at 1 µM ([3]; 1 μM compound): > 89%
IC50 [4, 6]: < 1000 nM
IC50 [5, 7]: 2000 to 5000 nM

O=C(Nc1cccc(C(=O)c2ccc3ncc(N4CCOCC4)nc3c2)c1)Nc1ccc(Cl)c(C(F)(F)F)c1 [Compound C018, 1-(4-chloro-3-(trifluoromethyl)phenyl)-3-(3-(3-morpholinoquinoxaline-6-carbonyl)phenyl)urea]
inhibition at 1 µM [1]: 70 to 89%
inhibition at 1 µM ([2]; 1 μM compound): > 89%
IC50 [2]: < 100 nM
inhibition at 1 µM ([3]; 1 μM compound): > 89%
IC50 [3]: < 100 nM
IC50 [4, 6]: < 1000 nM
IC50 [5, 7]: < 2000 nM

O=C(Nc1cccc(C(F)(F)F)c1)Nc1ccc(F)c(C(=O)c2ccc3ncc(N4CCOCC4)nc3c2)c1 [Compound C036, 1-(4-fluoro-3-(3-morpholinoquinoxaline-6-carbonyl)phenyl)-3-(3-(trifluoromethyl)phenyl)urea]
inhibition at 1 µM [1]: < 70%
inhibition at 1 µM ([2]; 1 μM compound): 70 to 89%
IC50 [2]: < 100 nM
inhibition at 1 µM ([3]; 1 μM compound): > 89%
IC50 [3]: < 100 nM
IC50 [4, 6]: < 1000 nM
IC50 [5, 7]: < 2000 nM

O=C(Nc1cccc(C(=O)c2ccc3ncc(N4CCCC4)nc3c2)c1)c1cccc(C(F)(F)F)c1 [Compound C122, N-(3-(3-(pyrrolidin-1-yl)quinoxaline-6-carbonyl)phenyl)-3-(trifluoromethyl)benzamide]
inhibition at 1 µM [1]: 70 to 89%
inhibition at 1 µM ([2]; 1 μM compound): > 89%
IC50 [2]: < 100 nM
inhibition at 1 µM ([3]; 1 μM compound): > 89%
IC50 [3]: < 100 nM
IC50 [4, 6]: 1000 to 5000 nM
IC50 [5, 7]: 2000 to 5000 nM

O=C(Nc1cccc(C(=O)c2ccc3nccnc3c2)c1)Nc1ccc(Cl)c(C(F)(F)F)c1 [Compound C004, 1-(4-chloro-3-(trifluoromethyl)phenyl)-3-(3-(quinoxaline-6-carbonyl)phenyl)urea]
inhibition at 1 µM [1]: 70 to 89%
inhibition at 1 µM ([2]; 1 μM compound): > 89%
IC50 [2]: < 100 nM
inhibition at 1 µM ([3]; 1 μM compound): 70 to 89%
IC50 [3]: < 100 nM
IC50 [4, 6]: 1000 to 5000 nM
IC50 [5, 7]: < 2000 nM

O=C(Nc1cccc(C(=O)c2ccc3ncc(-c4cccnc4)nc3c2)c1)Nc1ccc(Cl)c(C(F)(F)F)c1 [Compound C022, 1-(4-chloro-3-(trifluoromethyl)phenyl)-3-(3-(3-(pyridin-3-yl)quinoxaline-6-carbonyl)phenyl)urea]
inhibition at 1 µM [1]: 70 to 89%
inhibition at 1 µM ([2]; 1 μM compound): > 89%
IC50 [2]: < 100 nM
inhibition at 1 µM ([3]; 1 μM compound): > 89%
IC50 [3]: < 100 nM
IC50 [4, 6]: 1000 to 5000 nM
IC50 [5, 7]: > 5000 nM

O=C(Nc1cccc(F)c1)Nc1cccc(C(=O)c2ccc3nccnc3c2)c1 [Compound C001, 1-(3-fluorophenyl)-3-(3-(quinoxaline-6-carbonyl)phenyl)urea]
inhibition at 1 µM [1]: 70 to 89%
inhibition at 1 µM ([2]; 1 μM compound): > 89%
inhibition at 1 µM ([3]; 1 μM compound): < 70%
IC50 [4, 6]: 1000 to 5000 nM
IC50 [5, 7]: < 2000 nM

O=C(Nc1cccc(C(=O)c2ccc3nccnc3c2)c1)c1cccc(C(F)(F)F)c1 [Compound C110, N-(3-(quinoxaline-6-carbonyl)phenyl)-3-(trifluoromethyl)benzamide]
inhibition at 1 µM [1]: 70 to 89%
inhibition at 1 µM ([2]; 1 μM compound): 70 to 89%
inhibition at 1 µM ([3]; 1 μM compound): < 70%
IC50 [4, 6]: > 5000 nM
IC50 [5, 7]: 2000 to 5000 nM

O=C(Nc1cccc(C(F)(F)F)c1)Nc1ccc(F)c(C(=O)c2ccc3ncc(N4CCNCC4)nc3c2)c1 [Compound C085, 1-(4-fluoro-3-(3-(piperazin-1-yl)quinoxaline-6-carbonyl)phenyl)-3-(3-(trifluoromethyl)phenyl)urea]
inhibition at 1 µM [1]: > 89%
inhibition at 1 µM ([2]; 1 μM compound): > 89%
inhibition at 1 µM ([3]; 1 μM compound): > 89%
IC50 [4, 6]: < 1000 nM
IC50 [5, 7]: < 2000 nM

O=C(Nc1cncc(F)c1)Nc1ccc(F)c(C(=O)c2ccc3ncc(N4CCOCC4)nc3c2)c1 [Compound C079, 1-(4-fluoro-3-(3-morpholinoquinoxaline-6-carbonyl)phenyl)-3-(5-fluoropyridin-3-yl)urea]
inhibition at 1 µM [1]: > 89%
inhibition at 1 µM ([2]; 1 μM compound): > 89%
inhibition at 1 µM ([3]; 1 μM compound): 70 to 89%
IC50 [4, 6]: > 5000 nM
IC50 [5, 7]: > 5000 nM

O=C(Nc1ccc(Cl)c(C(F)(F)F)c1)Nc1cc(F)c(F)c(C(=O)c2ccc3nccnc3c2)c1F [Compound C007, 1-(4-chloro-3-(trifluoromethyl)phenyl)-3-(2,4,5-trifluoro-3-(quinoxaline-6-carbonyl)phenyl)urea]
inhibition at 1 µM [1]: < 70%
inhibition at 1 µM ([2]; 1 μM compound): < 70%
inhibition at 1 µM ([3]; 1 μM compound): < 70%
IC50 [4, 6]: 1000 to 5000 nM
IC50 [5, 7]: 2000 to 5000 nM

O=C(Nc1cccc(C(=O)c2ccc3ncc(N4CCCC4)nc3c2)c1)Nc1cccc(C(F)(F)F)c1 [Compound C020, 1-(3-(3-(pyrrolidin-1-yl)quinoxaline-6-carbonyl)phenyl)-3-(3-(trifluoromethyl)phenyl)urea]
inhibition at 1 µM [1]: 70 to 89%
inhibition at 1 µM ([2]; 1 μM compound): > 89%
inhibition at 1 µM ([3]; 1 μM compound): > 89%
IC50 [4, 6]: 1000 to 5000 nM
IC50 [5, 7]: > 5000 nM

O=C(Nc1cccc(C(=O)c2ccc3nccnc3c2)c1)Nc1cccc(C(F)(F)F)c1 [Compound C009, 1-(3-(quinoxaline-6-carbonyl)phenyl)-3-(3-(trifluoromethyl)phenyl)urea]
inhibition at 1 µM [1]: 70 to 89%
inhibition at 1 µM ([2]; 1 μM compound): 70 to 89%
IC50 [2]: < 100 nM
inhibition at 1 µM ([3]; 1 μM compound): > 89%
IC50 [3]: < 100 nM
IC50 [4, 6]: > 5000 nM
IC50 [5, 7]: 2000 to 5000 nM

1-(fluorophenyl)-3-(2,4,5-trifluoro-3-(quinoxaline-6-carbonyl)phenyl)urea [Compound C005]
% inhibition at 1 μM against BRAF [1]: + (less than 70% inhibition)
% inhibition at 1 μM against BRAF V600E ([2]; 1 μM compound): ++ (between 70% and 89% inhibition)
% inhibition at 1 μM against KDR ([3]; 1 μM compound): + (less than 70% inhibition)
IC50 ([4]; 72 h exposure): > 5000 nM
IC50 ([5]; 72 h exposure): > 5000 nM
